Measured values from patent US11548871B2, “Triazole carbamate pyridyl sulfonamides as LPA receptor antagonists and uses thereof” (Gilead Sciences, Inc., priority 2019, dated 2023).

target: human LPAR1 (Homo sapiens, UniProt Q92633); assay: LPAR1 intracellular calcium mobilization assay (antagonist mode)
Sequence (Q92633 whole entry): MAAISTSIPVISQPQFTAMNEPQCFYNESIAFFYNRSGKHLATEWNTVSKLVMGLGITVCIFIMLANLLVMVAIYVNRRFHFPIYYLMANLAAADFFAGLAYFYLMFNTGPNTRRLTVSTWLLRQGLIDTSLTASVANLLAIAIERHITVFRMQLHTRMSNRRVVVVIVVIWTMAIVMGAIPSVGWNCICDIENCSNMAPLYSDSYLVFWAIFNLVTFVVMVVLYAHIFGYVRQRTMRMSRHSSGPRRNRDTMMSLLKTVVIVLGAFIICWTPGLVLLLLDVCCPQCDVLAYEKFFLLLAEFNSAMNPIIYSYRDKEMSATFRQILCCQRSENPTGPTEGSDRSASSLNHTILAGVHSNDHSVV
Method: In vitro LPAR1 activity was measured in an intracellular calcium mobilization assay.
Prior to testing cell media were aspirated from the cells and replaced with 20 μL Calcium Dye Loading Buffer (DiscoverX Calcium NoWash^PLUS Assay Kit cat #90-0091) and 2.5 mM Probenecid (Sigma Aldrich cat #P8761, prepared fresh) in HBSS/20 mM Hepes for 60 min at 37° C.
For agonist dose curves, cells were removed from the incubator after dye loading and 10 μL HBSS/20 mM Hepes including 3× vehicle was added. Cells were incubated for 30 min at room temperature in the dark to equilibrate plate temperatures. An intermediate LPA dilution series was prepared in assay buffer to generate 4× stock. Calcium mobilization was monitored on a FLIPR Tetra (MDS, San Jose, Calif.) for 2 min and 10 μL 4×LPA in HBSS/20 mM Hepes was added to the cells 5 s into the assay.
An intermediate antagonist dilution series was prepared as 3× samples in assay buffer. After dye loading, cells were removed from the incubator and 10 μL 3× antagonist was added. Cells were incubated for 30 min at room temperature in the dark to equilibrate plate temperatures. The final vehicle (DMSO) concentration was 1%. Compound antagonist activities was measured on a FLIPR Tetra. Calcium mobilization was monitored for 2 min and 10 μL EC80 agonist in HBSS/20 mM Hepes was added to the cells 5 s into the assay. Compound activity was analyzed using CBIS data analysis suite (ChemInnovation Software, San Diego, Calif.).

SMILES	EC50 [nM]
Cc1nc(-c2nnn(C)c2NC(=O)OC(CCC2CC2)C(F)(F)F)ccc1NS(C)(=O)=O (stereo not drawn) [Compound 46, 4-cyclopropyl-1,1,1-trifluorobutan-2-yl (1-methyl-4-(6-methyl-5-(methylsulfonamido)pyridin-2-yl)-1H-1,2,3-triazol-5-yl)carbamate]	91.3
Cc1nc(-c2nnn(C)c2NC(=O)O[C@H](C)c2ccc(F)nc2C)ccc1NS(C)(=O)=O [Compound 143, (R)-1-(6-fluoro-2-methylpyridin-3-yl)ethyl (1-methyl-4-(6-methyl-5-(methylsulfonamido)pyridin-2-yl)-1H-1,2,3-triazol-5-yl)carbamate]	330
C[C@@H](OC(=O)Nc1c(-c2ccc(NS(C)(=O)=O)cn2)nnn1C)c1cccnc1Br [Compound 116, (R)-1-(2-bromopyridin-3-yl)ethyl (1-methyl-4-(5-(methylsulfonamido)pyridin-2-yl)-1H-1,2,3-triazol-5-yl)carbamate]	129

Continued by falling EC50, values first:

EC50 [nM]	SMILES
1080	Cc1nc(-c2nnn(C)c2NC(=O)OC(C)c2cccnc2C(F)F)ccc1NS(C)(=O)=O (stereo not drawn) [Compound 124, 1-(2-(difluoromethyl)pyridin-3-yl)ethyl (1-methyl-4-(6-methyl-5-(methylsulfonamido)pyridin-2-yl)-1H-1,2,3-triazol-5-yl)carbamate]
282	Cc1nc(-c2nnn(C)c2NC(=O)O[C@H](C)c2cc(F)c(F)cc2F)ccc1NS(C)(=O)=O [Compound 90, (R)-1-(2,4,5-trifluorophenyl)ethyl(1-methyl-4-(6-methyl-5-(methylsulfonamido)pyridin-2-yl)-1H-1,2,3-triazol-5-yl)carbamate]
42.1	C[C@@H](OC(=O)Nc1c(-c2ccc(NS(C)(=O)=O)cn2)nnn1C)c1cc(Cl)cnc1F [Compound 111, (R)-1-(5-chloro-2-fluoropyridin-3-yl)ethyl (1-methyl-4-(5-(methylsulfonamido)pyridin-2-yl)-1H-1,2,3-triazol-5-yl)carbamate]
